Measured values as given in US11793849B2, “Method of Chinese herbal medicine extract used for treating multiple diseases caused by drug resistant bacteria infection” (priority 2016, dated 2023).

System: MDRAB
Experiment: Checkerboard assay (combined-use MIC, FIC)
Assay type: cell-based, Acinetobacter baumannii
Conditions: for FIC, all strains / MIC50 of the antibiotic after combined use / MIC90 of the antibiotic after combined use / reduction of the antibiotic's MIC50 vs single use / reduction of the antibiotic's MIC90 vs single use / share of strains with FIC ≤ 0.5: 20 MDRABs
Procedure, shortened: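 Checkerboard combinations of S20b and antibiotic run per NCCLS method against ESBL E. coli, MDR A. baumannii and MDR P. aeruginosa.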

[1] = antibiotic with 60% ethanol extract
[2] = antibiotic with 95% ethanol extract
[3] = antibiotic with EA (10% ethanol extract)
[4] = antibiotic with EA (water extract)

Polymycin B [POLB]
FIC, all strains [1]: ≤ 2 | MIC50 of the antibiotic after combined use [1]: 0.5 µg/mL | MIC90 of the antibiotic after combined use [1]: 4 µg/mL | reduction of the antibiotic's MIC50 vs single use [1]: 87.5% | reduction of the antibiotic's MIC90 vs single use [1]: 75% | share of strains with FIC ≤ 0.5 [1]: 15% | FIC, all strains [2]: ≤ 2 | MIC50 of the antibiotic after combined use [2]: 1 µg/mL | MIC90 of the antibiotic after combined use [2]: 4 µg/mL | reduction of the antibiotic's MIC50 vs single use [2]: 75% | reduction of the antibiotic's MIC90 vs single use [2]: 75% | share of strains with FIC ≤ 0.5 [2]: 20% | FIC, all strains [3]: ≤ 2 | MIC50 of the antibiotic after combined use [3]: 1 µg/mL | MIC90 of the antibiotic after combined use [3]: 4 µg/mL | reduction of the antibiotic's MIC50 vs single use [3]: 75% | reduction of the antibiotic's MIC90 vs single use [3]: 75% | share of strains with FIC ≤ 0.5 [3]: 15% | FIC, all strains [4]: ≤ 2 | MIC50 of the antibiotic after combined use [4]: 1 µg/mL | MIC90 of the antibiotic after combined use [4]: 4 µg/mL | reduction of the antibiotic's MIC50 vs single use [4]: 75% | reduction of the antibiotic's MIC90 vs single use [4]: 75% | share of strains with FIC ≤ 0.5 [4]: 25% | combined-use MIC (strain A1, EA (10% ethanol extract) with POLB): 4 µg/mL | combined-use MIC (strain A1, EA (60% ethanol extract) + POLB combined): 4 µg/mL | combined-use MIC (strain A1, EA (95% ethanol extract) + POLB combined): 4 µg/mL | combined-use MIC (strain A1, EA (water extract) with POLB): 4 µg/mL | single-use MIC (strain A1, EA=60% ethanol extract): 8 µg/mL | single-use MIC (strain A1, EA=95% ethanol extract): 8 µg/mL | combined-use MIC (strain A2, EA (10% ethanol extract) with POLB): 1 µg/mL | combined-use MIC (strain A2, EA (60% ethanol extract) + POLB combined): 0.5 µg/mL | combined-use MIC (strain A2, EA (95% ethanol extract) + POLB combined): 0.5 µg/mL | combined-use MIC (strain A2, EA (water extract) with POLB): 1 µg/mL | single-use MIC (strain A2, EA=60% ethanol extract): 2 µg/mL | single-use MIC (strain A2, EA=95% ethanol extract): 2 µg/mL | combined-use MIC (strain A3, EA (10% ethanol extract) with POLB): 1 µg/mL | combined-use MIC (strain A3, EA (60% ethanol extract) + POLB combined): 1 µg/mL | combined-use MIC (strain A3, EA (95% ethanol extract) + POLB combined): 1 µg/mL | combined-use MIC (strain A3, EA (water extract) with POLB): 0.5 µg/mL | single-use MIC (strain A3, EA=60% ethanol extract): 2 µg/mL | single-use MIC (strain A3, EA=95% ethanol extract): 2 µg/mL | combined-use MIC (strain A4, EA (10% ethanol extract) with POLB): 1 µg/mL | combined-use MIC (strain A4, EA (60% ethanol extract) + POLB combined): 1 µg/mL | combined-use MIC (strain A4, EA (95% ethanol extract) + POLB combined): 1 µg/mL | combined-use MIC (strain A4, EA (water extract) with POLB): 0.5 µg/mL | single-use MIC (strain A4, EA=60% ethanol extract): 2 µg/mL | single-use MIC (strain A4, EA=95% ethanol extract): 2 µg/mL | single-use MIC (strain A5 (printed AS in tables A43, A45), EA=95% ethanol extract): 4 µg/mL | combined-use MIC (strain A5, EA (10% ethanol extract) with POLB): 1 µg/mL | combined-use MIC (strain A5, EA (60% ethanol extract) + POLB combined): 2 µg/mL | combined-use MIC (strain A5, EA (water extract) with POLB): 0.5 µg/mL | single-use MIC (strain A5, EA=60% ethanol extract): 4 µg/mL | combined-use MIC (strain A6, EA (10% ethanol extract) with POLB): 1 µg/mL | combined-use MIC (strain A6, EA (60% ethanol extract) + POLB combined): 2 µg/mL | combined-use MIC (strain A6, EA (95% ethanol extract) + POLB combined): 2 µg/mL | combined-use MIC (strain A6, EA (water extract) with POLB): 2 µg/mL | single-use MIC (strain A6, EA=60% ethanol extract): 8 µg/mL | single-use MIC (strain A6, EA=95% ethanol extract): 8 µg/mL | combined-use MIC (strain A7, EA (10% ethanol extract) with POLB): 1 µg/mL | combined-use MIC (strain A7, EA (60% ethanol extract) + POLB combined): 2 µg/mL | combined-use MIC (strain A7, EA (95% ethanol extract) + POLB combined): 2 µg/mL | combined-use MIC (strain A7, EA (water extract) with POLB): 1 µg/mL | single-use MIC (strain A7, EA=60% ethanol extract): 4 µg/mL | single-use MIC (strain A7, EA=95% ethanol extract): 4 µg/mL | combined-use MIC (strain A8, EA (10% ethanol extract) with POLB): 0.0625 µg/mL | combined-use MIC (strain A8, EA (60% ethanol extract) + POLB combined): 0.0625 µg/mL | combined-use MIC (strain A8, EA (95% ethanol extract) + POLB combined): 1 µg/mL | combined-use MIC (strain A8, EA (water extract) with POLB): 0.0625 µg/mL | single-use MIC (strain A8, EA=60% ethanol extract): 8 µg/mL | single-use MIC (strain A8, EA=95% ethanol extract): 8 µg/mL | combined-use MIC (strain A9, EA (10% ethanol extract) with POLB): 0.0625 µg/mL | combined-use MIC (strain A9, EA (60% ethanol extract) + POLB combined): 0.0625 µg/mL | combined-use MIC (strain A9, EA (95% ethanol extract) + POLB combined): 0.25 µg/mL | combined-use MIC (strain A9, EA (water extract) with POLB): 0.0625 µg/mL | single-use MIC (strain A9, EA=60% ethanol extract): 1 µg/mL | single-use MIC (strain A9, EA=95% ethanol extract): 1 µg/mL | combined-use MIC (strain A10, EA (10% ethanol extract) with POLB): 4 µg/mL | combined-use MIC (strain A10, EA (60% ethanol extract) + POLB combined): 8 µg/mL | combined-use MIC (strain A10, EA (95% ethanol extract) + POLB combined): 8 µg/mL | combined-use MIC (strain A10, EA (water extract) with POLB): 8 µg/mL | single-use MIC (strain A10, EA=60% ethanol extract): 32 µg/mL | single-use MIC (strain A10, EA=95% ethanol extract): 32 µg/mL | combined-use MIC (strain A11, EA (10% ethanol extract) with POLB): 8 µg/mL | combined-use MIC (strain A11, EA (60% ethanol extract) + POLB combined): 4 µg/mL | combined-use MIC (strain A11, EA (95% ethanol extract) + POLB combined): 4 µg/mL | combined-use MIC (strain A11, EA (water extract) with POLB): 4 µg/mL | single-use MIC (strain A11, EA=60% ethanol extract): 16 µg/mL | single-use MIC (strain A11, EA=95% ethanol extract): 16 µg/mL | combined-use MIC (strain A12, EA (10% ethanol extract) with POLB): 1 µg/mL | combined-use MIC (strain A12, EA (60% ethanol extract) + POLB combined): 0.5 µg/mL | combined-use MIC (strain A12, EA (95% ethanol extract) + POLB combined): 1 µg/mL | combined-use MIC (strain A12, EA (water extract) with POLB): 0.0625 µg/mL | single-use MIC (strain A12, EA=60% ethanol extract): 2 µg/mL | single-use MIC (strain A12, EA=95% ethanol extract): 2 µg/mL | combined-use MIC (strain A13, EA (10% ethanol extract) with POLB): 1 µg/mL | combined-use MIC (strain A13, EA (60% ethanol extract) + POLB combined): 1 µg/mL | combined-use MIC (strain A13, EA (95% ethanol extract) + POLB combined): 1 µg/mL | combined-use MIC (strain A13, EA (water extract) with POLB): 1 µg/mL | single-use MIC (strain A13, EA=60% ethanol extract): 2 µg/mL | single-use MIC (strain A13, EA=95% ethanol extract): 2 µg/mL | combined-use MIC (strain A14, EA (10% ethanol extract) with POLB): 0.0625 µg/mL | combined-use MIC (strain A14, EA (60% ethanol extract) + POLB combined): 0.0625 µg/mL | combined-use MIC (strain A14, EA (95% ethanol extract) + POLB combined): 0.25 µg/mL | combined-use MIC (strain A14, EA (water extract) with POLB): 0.0625 µg/mL | single-use MIC (strain A14, EA=60% ethanol extract): 0.5 µg/mL | single-use MIC (strain A14, EA=95% ethanol extract): 0.5 µg/mL | combined-use MIC (strain A15, EA (10% ethanol extract) with POLB): 1 µg/mL | combined-use MIC (strain A15, EA (60% ethanol extract) + POLB combined): 0.0625 µg/mL | combined-use MIC (strain A15, EA (95% ethanol extract) + POLB combined): 0.0625 µg/mL | combined-use MIC (strain A15, EA (water extract) with POLB): 0.0625 µg/mL | single-use MIC (strain A15, EA=60% ethanol extract): 2 µg/mL | single-use MIC (strain A15, EA=95% ethanol extract): 2 µg/mL | combined-use MIC (strain A16, EA (10% ethanol extract) with POLB): 1 µg/mL | combined-use MIC (strain A16, EA (60% ethanol extract) + POLB combined): 0.0625 µg/mL | combined-use MIC (strain A16, EA (95% ethanol extract) + POLB combined): 0.0625 µg/mL | combined-use MIC (strain A16, EA (water extract) with POLB): 0.0625 µg/mL | single-use MIC (strain A16, EA=60% ethanol extract): 4 µg/mL | single-use MIC (strain A16, EA=95% ethanol extract): 4 µg/mL | combined-use MIC (strain A17, EA (10% ethanol extract) with POLB): 16 µg/mL | combined-use MIC (strain A17, EA (60% ethanol extract) + POLB combined): 2 µg/mL | combined-use MIC (strain A17, EA (95% ethanol extract) + POLB combined): 4 µg/mL | combined-use MIC (strain A17, EA (water extract) with POLB): 2 µg/mL | single-use MIC (strain A17, EA=60% ethanol extract): 64 µg/mL | single-use MIC (strain A17, EA=95% ethanol extract): 64 µg/mL | combined-use MIC (strain A18, EA (10% ethanol extract) with POLB): 1 µg/mL | combined-use MIC (strain A18, EA (60% ethanol extract) + POLB combined): 0.5 µg/mL | combined-use MIC (strain A18, EA (95% ethanol extract) + POLB combined): 1 µg/mL | combined-use MIC (strain A18, EA (water extract) with POLB): 2 µg/mL | single-use MIC (strain A18, EA=60% ethanol extract): 4 µg/mL | single-use MIC (strain A18, EA=95% ethanol extract): 4 µg/mL | combined-use MIC (strain A19, EA (10% ethanol extract) with POLB): 1 µg/mL | combined-use MIC (strain A19, EA (60% ethanol extract) + POLB combined): 0.5 µg/mL | combined-use MIC (strain A19, EA (95% ethanol extract) + POLB combined): 1 µg/mL | combined-use MIC (strain A19, EA (water extract) with POLB): 2 µg/mL | single-use MIC (strain A19, EA=60% ethanol extract): 4 µg/mL | single-use MIC (strain A19, EA=95% ethanol extract): 4 µg/mL | combined-use MIC (strain A20, EA (10% ethanol extract) with POLB): 1 µg/mL | combined-use MIC (strain A20, EA (60% ethanol extract) + POLB combined): 0.5 µg/mL | combined-use MIC (strain A20, EA (95% ethanol extract) + POLB combined): 0.5 µg/mL | combined-use MIC (strain A20, EA (water extract) with POLB): 1 µg/mL | single-use MIC (strain A20, EA=60% ethanol extract): 2 µg/mL | single-use MIC (strain A20, EA=95% ethanol extract): 2 µg/mL | combined-use MIC (strain AS, EA (95% ethanol extract) + POLB combined): 2 µg/mL
